Experimental data from the supplement of paper PMC10307832.

Experiments:
Assay in all cases: relative viability (nuclei count vs DMSO), 5 days (fraction); higher = more cells survive
Crenolanib + Olaparib = compound: CC1(COc2ccc3c(c2)ncn3-c2ccc3cccc(N4CCC(N)CC4)c3n2)COC1 [Crenolanib] + O=C(c1cc(Cc2n[nH]c(=O)c3ccccc23)ccc1F)N1CCN(C(=O)C2CC2)CC1 [Olaparib] (partner 8 µM)
Summary of the method: (§1)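 Cells from lung cancer lines were seeded into 1536-well plates and, one day later, dosed by pin tool. Treatments were either a single drug or a fixed dose of an anchor drug with five library-drug doses (not always all listed) in √10 steps. After 5 days, nuclei were stained in a one-step fixation (final 0.05% Triton X-100, 1% formaldehyde, 1 ug/ml Hoechst) and counted on 4× images, and relative viability is the treated-to-vehicle nuclei ratio, as the median of duplicate plates.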

Crenolanib + Pictilisib = compound: CC1(COc2ccc3c(c2)ncn3-c2ccc3cccc(N4CCC(N)CC4)c3n2)COC1 [Crenolanib] + CS(=O)(=O)N1CCN(Cc2cc3nc(-c4cccc5[nH]ncc45)nc(N4CCOCC4)c3s2)CC1 [Pictilisib] (partner 1 µM)
Summary of the method: as §1

Crenolanib + Bortezomib = compound: CC1(COc2ccc3c(c2)ncn3-c2ccc3cccc(N4CCC(N)CC4)c3n2)COC1 [Crenolanib] + CC(C)C[C@H](NC(=O)[C@H](Cc1ccccc1)NC(=O)c1cnccn1)B(O)O [Bortezomib] (partner 0.002 µM)
Summary of the method: as §1

Tivantinib + Dasatinib = compound: O=C1NC(=O)[C@@H](c2cn3c4c(cccc24)CCC3)[C@@H]1c1c[nH]c2ccccc12 [Tivantinib] + Cc1nc(Nc2ncc(C(=O)Nc3c(C)cccc3Cl)s2)cc(N2CCN(CCO)CC2)n1 [Dasatinib] (partner 0.075 µM)
Summary of the method: as §1

Cell Line | relative viability (Crenolanib + Olaparib; first compound 0.01 µM) | relative viability (Crenolanib + Olaparib; first compound 0.03162 µM) | relative viability (Crenolanib + Olaparib; first compound 0.1 µM) | relative viability (Crenolanib + Olaparib; first compound 0.3162 µM) | relative viability (Crenolanib + Olaparib; first compound 1 µM) | relative viability (Crenolanib + Pictilisib; first compound 0.01 µM) | relative viability (Crenolanib + Pictilisib; first compound 0.03162 µM) | relative viability (Crenolanib + Pictilisib; first compound 0.1 µM) | relative viability (Crenolanib + Pictilisib; first compound 0.3162 µM) | relative viability (Crenolanib + Pictilisib; first compound 1 µM) | relative viability (Crenolanib + Bortezomib; first compound 0.01 µM) | relative viability (Crenolanib + Bortezomib; first compound 0.03162 µM) | relative viability (Crenolanib + Bortezomib; first compound 0.1 µM) | relative viability (Crenolanib + Bortezomib; first compound 0.3162 µM) | relative viability (Crenolanib + Bortezomib; first compound 1 µM) | relative viability (Tivantinib + Dasatinib; first compound 0.01 µM) | relative viability (Tivantinib + Dasatinib; first compound 0.03162 µM) | relative viability (Tivantinib + Dasatinib; first compound 0.1 µM) | relative viability (Tivantinib + Dasatinib; first compound 0.3162 µM)
NCI-H647 | 0.477 | 0.512 | 0.511 | 0.802 | 0.586 | 0.448 | 0.314 | 0.412 | 0.423 | 0.454 | 1.03 | 0.94 | 0.974 | 1.16 | 0.888 | 0.188 | 0.194 | 0.149 | 0.195
NCI-H650 | 0.4 | 0.379 | 0.343 | 0.339 | 0.325 | 0.9 | 0.806 | 0.901 | 0.801 | 0.83 | 0.944 | 0.767 | 0.769 | 0.855 | 0.68 | 0.504 | 0.359 | 0.461 | 0.527
NCI-H661 | 0.719 | 0.803 | 0.681 | 0.811 | 0.81 | 0.476 | 0.336 | 0.368 | 0.378 | 0.414 | 0.807 | 0.853 | 0.851 | 0.831 | 0.745 | 0.884 | 0.869 | 0.736 | 0.4
NCI-H727 | 0.678 | 0.652 | 0.646 | 0.627 | 0.847 | 0.491 | 0.634 | 0.342 | 0.473 | 0.418 | 0.905 | 0.92 | 0.821 | 0.869 | 0.991 | 0.529 | 0.344 | 0.306 | 0.275
NCI-H838 | 0.828 | 0.776 | 0.735 | 0.855 | 0.635 | 0.492 | 0.499 | 0.418 | 0.418 | 0.381 | 0.774 | 0.796 | 0.984 | 0.77 | 0.566 | 0.324 | 0.296 | 0.274 | 0.276
NCI-H1355 | 0.812 | 0.817 | 0.739 | 0.784 | 0.651 | 0.459 | 0.48 | 0.436 | 0.402 | 0.389 | 1.33 | 1.15 | 1.3 | 1.37 | 0.951 | 0.666 | 0.668 | 0.675 | 0.564
NCI-H1437 | 0.632 | 0.636 | 0.621 | 0.647 | 0.591 | 0.548 | 0.517 | 0.549 | 0.495 | 0.571 | 0.48 | 0.408 | 0.557 | 0.515 | 0.526 | 0.427 | 0.334 | 0.429 | 0.376
NCI-H1650 | 0.677 | 0.84 | 0.659 | 0.82 | 0.607 | 0.731 | 0.68 | 0.583 | 0.472 | 0.327 | 0.217 | 0.194 | 0.197 | 0.205 | 0.203 | 0.41 | 0.289 | 0.276 | 0.313
